The values that follow come from ChEMBL document CHEMBL5608239, “Structure, Function, and Activity of Small Molecule and Peptide Inhibitors of Protein Arginine Methyltransferase 1” (J Med Chem, 2024).

Numbered stars: 1 amine (or outer) side, 2 acyl side, 3 side chain; on linkers, the order of the positions; unused ones are H or OH. Square brackets hold non-standard residues; d marks the D form. Peptide text beside a SMILES is read from it. X1 = N=C(NCCC[C@H](N[*:1])C(=O)[*:2])NCCC[C@H]1O[C@@H](n2cnc3c(N)ncnc32)[C@H](O)[C@@H]1O Some results are limits rather than exact numbers.

For test [1], the target named is T1, Protein arginine N-methyltransferase 1 (Homo sapiens, UniProt Q99873). Kind of test: Inhibition of 6His-tagged human recombinant PRMT1 using Histone H4 as substrate.
In test [2] the target is T1, Protein arginine N-methyltransferase 1. As to the kind of experiment: Inhibition of human PRMT1 using [3H]methylated biotin-labeled peptide as substrate by scintillation proximity assay. For orientation: SPA uses beads or plates that emit light when radiolabelled molecules are held near them.
The target is the same in test [3].
The target is the same in test [4]. Kind of test: Inhibition of PRMT1 (unknown origin) using Histone H4 as substrate incubated for 1 hr by fluorescence based analysis.

T1 sequence (Q99873 whole entry): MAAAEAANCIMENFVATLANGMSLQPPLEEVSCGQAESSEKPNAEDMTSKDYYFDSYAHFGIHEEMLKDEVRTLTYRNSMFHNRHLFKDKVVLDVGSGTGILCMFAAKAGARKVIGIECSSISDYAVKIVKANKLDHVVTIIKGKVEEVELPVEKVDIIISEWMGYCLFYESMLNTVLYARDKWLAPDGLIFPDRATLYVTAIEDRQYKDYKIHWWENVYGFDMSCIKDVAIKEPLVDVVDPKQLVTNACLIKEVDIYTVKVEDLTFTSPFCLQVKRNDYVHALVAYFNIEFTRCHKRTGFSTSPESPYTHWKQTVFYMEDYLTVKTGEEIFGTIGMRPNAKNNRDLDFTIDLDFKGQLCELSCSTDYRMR

The term IC50 denotes the concentration at which inhibition is half-maximal. Turning to `C[C@@H](O)[C@H](NC(=O)CNC(=O)CNC(=O)[C@H](CCCNC(=N)NCCC[C@H](N)C(=O)O)NC(=O)[C@H](CO)NC(=O)[C@@H](NC(=O)CNC(=O)CNC(=O)[C@@H](N)Cc1c[nH]c2ccccc12)[C@@H](C)O)C(=O)NCC(=O)NCC(=O)N[C@@H](Cc1c[nH]c2ccccc12)C(=O)O`, the half-inhibitory concentration (IC50) in test [1] was greater than 500 µM.
Turning to `CC(=O)N[C@@H](CO)C(=O)NCC(=O)N[C@@H](CCCNC(=N)NCCC[C@H]1O[C@@H](n2cnc3c(N)ncnc32)[C@H](O)[C@@H]1O)C(=O)NCC(=O)N[C@@H](CCCCN)C(=O)NCC(=O)NCC(=O)N[C@@H](CCCCN)C(N)=O` (Ac-SG[X1]GKGGK-NH2), the IC50 in test [2] was 1.33 µM.
Take `N=C(NCCCCC(N)C(N)=O)NCCCSC[C@H]1O[C@@H](n2cnc3c(N)ncnc32)[C@H](O)[C@@H]1O` (some centres undefined): the IC50 in test [3] and in test [4] was 3 µM in each case.
